The subject of data set [1] is hepatic cholesterol degeneration. Kind of data set: Hepatic cholesterol degeneration in the rat (Ridout). It counts as in vivo. Particulars: for Fresh liver weight: three weeks. The text has this: The values are the averages ± E.S. of 10 values for each group. In studying the hepatoprotective activity we have used an experimental device which produces in the rat the so-called hepatic cholesterol degeneration (Ridout and Coll., Biochem. J. 52, 99, 1952).
In this method, by means of a suitable diet, a conspicuous increase in the total hepatic fats and hepatic cholesterol are obtained in the animals. The substances which act in the lipidic metabolism reduce or annul this increase.
The animals were divided into six groups. The first group was administered with a diet which was varied at will. The second group was administered with the basic diet of Ridout (20 g per rat per day); the other groups were administered with the same diet in the same doses but enriched with cholesterol to the extent of 0.2 g/rat/day. The treatment lasted three weeks. The groups 4,5,6 were administered with SAM in the following doses:
0.4, 0.8, 2 mg/kg/i.p. per day.
At the end of the three weeks all the animals were killed, the livers were withdrawn and the total fats (Best and Coll., Biochem. J. 40, 368, 1966) and cholesterol (Sperry and Brand, J. Biol. Chem. 150, 315, 1943) were determined.

In data set [2] the test system is edema by egg white. Nature of the data set: Edema by egg white (acute inflammation). It is filed as in vivo. Particulars: orally 8 to 40 mg/kg; parenterally 4 to 8 mg/kg; in comparison with Ibuprofen, Indometacina. The source says: (§1) Of the various tests we shall mention the most classic, namely the edema by carragenine and by egg white as a test for acute inflammation; and granuloma by cotton pellets and arthritis by adjuvant as a test for chronic inflammation. […] The analgesia tests were in the form of the hot plate test and stretching by acetic acid, and the Randal and Selitto test in the rat.

Data set [3] relates to stretching by acetic acid. Nature of the data set: Stretching by acetic acid analgesia test. It counts as in vivo. Particulars: in comparison with known drugs studied.
Description: as §1

Data set [4] concerns depressive forms. Nature of the data set: Clinical tests: depressive forms (tests of Hamilton and Wittenberg). It is filed as in vivo, human. As to conditions: 8 to 20 mg 3-4 times per day, 5-15 days, no other therapy.
Data set [5] concerns Parkinsons disease and Parkinsonisms. Nature of the data set: Clinical tests: Parkinsons disease and Parkinsonisms, with Levodopa. It counts as in vivo, human.
Data set [6] relates to young volunteer healthy subjects of both sexes. Nature of the data set: Tolerability in young volunteer healthy subjects. It counts as in vivo. Particulars: man, 5-150 mg.
The subject of data set [7] is hot plate test. Nature of the data set: Hot plate analgesia test. As to conditions: in comparison with known drugs studied. It is filed as in vivo.
Description: as §1

In the case of `C[S+](CC[C@H](N)C(=O)O)C[C@H]1O[C@@H](n2cnc3c(N)ncnc32)[C@H](O)[C@@H]1O` (stereo partly drawn) [SAM, S-Adenosil-L-Methionine], the “protection of the batch” value in data set [1] (2 mg/kg/i.p.) was “completely protected”; in data set [1] (0.4-0.8 mg/kg/i.p.) it was “poorly protected”. In addition, the Fresh liver weight in data set [1] (batch IV, 0.4 mg/kg/i.p. per day) was found to be 17 g; in data set [1] (batch V, 0.8 mg/kg/i.p. per day) it was 16 g. In data set [2], the anti-inflammatory activity result was “active”. Also, the analgesic activity result in data set [3] and in data set [7] was “active” throughout. Also, the “remission of main parameters of depressive forms” value in data set [4] is “a significant remissione of the main parameters”. In data set [5] (4-16 mg per day with Levodopa, vs patients treated only with Levodopa), the akinesia and rigidity result is listed as “a statistically more significant improvement”. The “extent of the Parkinson tremor” value in data set [5] (SAM in association with Levodopa) was “Favourable modifications”. The “Levodopa dependent psychic disturbances” value in data set [5] (depressive states and psychic manifestations of irritative type) is recorded as “distinctly improves”. In addition, in data set [5] (nausea, vomit, inappetite, hypotension, asthenia, cephalea, hypersudoration, insomnia, 4-16 mg per day), the Levodopa side effects result was “significantly blocks”. Also, the “hemopoietic apparatus and hepatic and renal operation” value in data set [6] (intravenous) was “no variations from normal which were statistically significant”. Besides, the electrocardiograph trace result in data set [6] (intravenous, 30" to 20', PQ interval, ST section, extrasistol) is “does not show any variation”. The “minimum and maximum pressure, pulse and respiratory frequency” value in data set [6] (rapid intravenous or phleboclysis, 1 minute to 24 hours) is reported as “does not show any variation from normal values”.

The values above are taken from US4057686A, “Sulphonic acid salts of S-adenosilmethionine” (Bioresearch Limited, priority 1974, dated 1977).
